We go through twelve molecules from ChEMBL document CHEMBL1201862, “PubChem BioAssay data set” (2004).

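Cells were grown in 96-well plates and exposed to each compound for 48 hours at five concentrations; endpoints were interpolated linearly between bracketing concentrations, or set to the highest concentration if not reached. GI50: concentration for 50% inhibition of growth.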 Calls of active or inactive are those of the source. Cut-off read from the data, not from the text of the source: active = GI50 up to about 1.1 µM and inactive = higher.

Some test systems named below: A549; COLO 205; HCT-116; HCT-15; HOP-92; KM-20L2; LOX IMVI; M19-MEL; MCF7; NCI-H23; OVCAR-4; OVCAR-5; OVCAR-8; RPMI-8226; SK-MEL-5; SN12C; UACC-62; SR; TK-10; M14.
Holding throughout (assay): NCI tumour cell line growth inhibition, 48 h

Regarding `C=C1C(=O)OC2C=C(C)CC3C=C(CCC=C(C)CCC12)C(=O)O3` (configuration not stated), the GI50 in the assay with A549 was 99.3 µM (inactive); in the assay on COLO 205 it was 53.1 µM (inactive); with HCT-116, 33.1 µM (inactive); in the assay on HCT-15, 56.6 µM; in the assay on HOP-92, 52.8 µM (inactive); with KM-20L2, 52.7 µM (inactive). The GI50 in the assay on LOX IMVI is 32.5 µM (inactive); in the assay with M19-MEL it was 58.3 µM (inactive); in the assay on MCF7, 47.5 µM (inactive); in the assay on NCI-H23 it was 49.3 µM (inactive); in the assay on OVCAR-4 it was 72.3 µM (inactive); in the assay with OVCAR-5 it was 101 µM (inactive). Besides, the GI50 is 72.3 µM (inactive) in the assay on OVCAR-8; 44.9 µM (inactive) with RPMI-8226; 67.9 µM (inactive) in the assay on SK-MEL-5; 69 µM (inactive) with SN12C; 54.2 µM (inactive) in the assay with UACC-62.
As to `CO[C@H]1ON=C(c2c(C)cc(C)cc2C)[C@@H]1C1(c2ccccc2)ON=C(c2c(C)cc(C)cc2C)O1` (some centres not stated), the GI50 in the assay with A549 was > 100 µM (inactive); in the assay with COLO 205 it was > 100 µM (inactive); in the assay on HCT-116, > 100 µM (inactive); in the assay with HCT-15, more than 10 µM; in the assay with HOP-92 it was > 100 µM (inactive); in the assay with KM-20L2, > 100 µM (inactive). Besides, the GI50 in the assay on LOX IMVI is > 100 µM (inactive); in the assay with M19-MEL, > 100 µM (inactive); with NCI-H23 it was > 100 µM (inactive); with OVCAR-5, > 100 µM (inactive); in the assay with OVCAR-8, > 100 µM (inactive); with RPMI-8226, 37.8 µM (inactive). Moreover, the GI50 in the assay on SN12C, with SR, in the assay on TK-10 and with UACC-62 was > 100 µM (inactive) throughout.
With `CC(=O)O[C@@H]1CN(S(=O)(=O)c2ccc(C)cc2)C[C@@H]1C1CCCCC1`, the GI50 with COLO 205 was 18.5 µM (inactive); in the assay on HCT-15 it was 32.6 µM; in the assay on HOP-92 it was 14.7 µM (inactive); with LOX IMVI it was 24.6 µM (inactive); in the assay on M14 it was 15.8 µM (inactive); in the assay with MCF7, 19.4 µM (inactive). Further, the GI50 in the assay on NCI-H23 was 38.5 µM (inactive); with OVCAR-4 it was 50.6 µM (inactive); in the assay with OVCAR-5, 26.7 µM (inactive); in the assay with OVCAR-8 it was 24.8 µM (inactive); in the assay with RPMI-8226 it was 25.5 µM (inactive); in the assay with SK-MEL-5 it was 19.2 µM (inactive). Moreover, the values for the GI50 in the assay on SR, in the assay on TK-10 and in the assay with UACC-62 were 23.4 µM (inactive), 14.2 µM (inactive) and 16.1 µM (inactive), respectively.
For the molecule `C=CCNC(=O)CN(CC(=O)OC)C1CCCCC1N(CC(=O)OC)CC(=O)OC` (configuration not stated), the GI50 is > 100 µM (inactive) with A549; > 100 µM (inactive) in the assay with HCT-116; more than 100 µM in the assay with HCT-15; > 100 µM (inactive) with HOP-92; > 100 µM (inactive) with LOX IMVI; > 100 µM (inactive) in the assay on M14. The GI50 with MCF7, in the assay on NCI-H23, in the assay with OVCAR-5, in the assay on OVCAR-8, in the assay with RPMI-8226 and with SK-MEL-5 was > 100 µM (inactive) throughout. Moreover, the GI50 with SN12C, in the assay with TK-10 and in the assay with UACC-62 was > 100 µM (inactive) throughout.
In the case of `CC(C)CNC1=NCC(C)S1` (configuration not stated), the GI50 in the assay with A549 was > 100 µM (inactive); with COLO 205, > 100 µM (inactive); with HCT-116, > 100 µM (inactive); with HCT-15 it was more than 100 µM; with HOP-92, > 100 µM (inactive); with LOX IMVI, > 100 µM (inactive). In addition, the GI50 in the assay with M14, in the assay with MCF7, with NCI-H23, in the assay on OVCAR-5, in the assay with RPMI-8226 and in the assay on SK-MEL-5 was > 100 µM (inactive) in each case. In addition, the GI50 in the assay on SR, in the assay with TK-10 and in the assay on UACC-62 was > 100 µM (inactive) in each case.
Consider `O=C1C(Cl)N(c2ccccc2Cl)C1c1c[nH]c2ccccc12` (configuration not stated), for which the GI50 in the assay on A549, in the assay with COLO 205, in the assay with HCT-116, with HOP-92, in the assay on KM-20L2 and with M14 was > 100 µM (inactive) each time. For the same molecule, the GI50 with M19-MEL, with NCI-H23, in the assay with OVCAR-4, in the assay on OVCAR-8, with RPMI-8226 and in the assay with SK-MEL-5 was > 100 µM (inactive) throughout. The GI50 in the assay on SN12C, in the assay on SR, in the assay with TK-10 and in the assay on UACC-62 was > 100 µM (inactive) each time.
As to `CNC(=O)N(C)COC`, the GI50 is > 100 µM (inactive) with A549; > 100 µM (inactive) in the assay on COLO 205; > 100 µM (inactive) in the assay with HCT-116; more than 100 µM in the assay with HCT-15; > 100 µM (inactive) in the assay on KM-20L2; > 100 µM (inactive) in the assay on LOX IMVI. Moreover, the GI50 in the assay on M14, in the assay with M19-MEL, with OVCAR-4, with OVCAR-5, in the assay on OVCAR-8 and with RPMI-8226 was > 100 µM (inactive) each time. The GI50 in the assay on SN12C, in the assay with SR and in the assay with UACC-62 was > 100 µM (inactive) in each case.
For `C#CC[N+](CCO)(CCO)CCCCCCCCCCCCCCCCCC`, the GI50 was 15.7 µM (inactive) in the assay with A549; 11.2 µM (inactive) with COLO 205; 8.41 µM (inactive) with HCT-116; 15.3 µM in the assay with HCT-15; 2 µM (inactive) in the assay with HOP-92; 7.1 µM (inactive) in the assay on KM-20L2. In addition, the GI50 was 4.81 µM (inactive) with LOX IMVI; 9.16 µM (inactive) in the assay on M19-MEL; 14.8 µM (inactive) with MCF7; 13.8 µM (inactive) in the assay on NCI-H23; 10.5 µM (inactive) in the assay with OVCAR-4; 14.8 µM (inactive) in the assay on OVCAR-5. The GI50 is 16.1 µM (inactive) with OVCAR-8; 3.27 µM (inactive) in the assay on RPMI-8226; 15.7 µM (inactive) in the assay on SK-MEL-5; 16.4 µM (inactive) in the assay with SN12C; 11 µM (inactive) in the assay on UACC-62.
For the molecule `Cc1cn(Cc2cn(CC3OC(n4cc(C)c(=O)[nH]c4=O)CC3O)nn2)c(=O)[nH]c1=O` (configuration not stated), the GI50 is > 100 µM (inactive) with A549; > 100 µM (inactive) with COLO 205; > 100 µM (inactive) in the assay on HCT-116; more than 100 µM in the assay on HCT-15; > 100 µM (inactive) in the assay with M14; > 100 µM (inactive) with MCF7. Besides, the GI50 in the assay on NCI-H23, with OVCAR-4, in the assay on OVCAR-5, with OVCAR-8, in the assay on RPMI-8226 and in the assay with SK-MEL-5 was > 100 µM (inactive) each time. Also, the GI50 in the assay on SN12C, in the assay on TK-10 and with UACC-62 was > 100 µM (inactive) each time.
With `Cn1c(=O)c2nc(N3CCCCC3)cnc2n(C)c1=O`, the GI50 is > 100 µM (inactive) in the assay with A549; > 100 µM (inactive) in the assay with COLO 205; > 100 µM (inactive) with HCT-116; more than 100 µM in the assay with HCT-15; > 100 µM (inactive) with HOP-92; > 100 µM (inactive) with KM-20L2. The GI50 in the assay on M14, with M19-MEL, in the assay on NCI-H23, in the assay on OVCAR-4, in the assay with OVCAR-5 and in the assay on OVCAR-8 was > 100 µM (inactive) in each case. The GI50 with RPMI-8226, in the assay on SK-MEL-5, with SN12C, in the assay on SR, in the assay with TK-10 and in the assay on UACC-62 was > 100 µM (inactive) in each case.
Turning to `O=C(O)CN1CCN(CC(=O)O)CCN(CC(=O)O)CC1`, the GI50 in the assay with A549 was 3.03 µM (inactive); with COLO 205, 2.57 µM (inactive); with HCT-116 it was 3.7 µM (inactive); in the assay on HCT-15 it was 4.53 µM; with HOP-92, 38.2 µM (inactive); in the assay with LOX IMVI, > 24.1 µM (inactive). For the same molecule, the GI50 was 38.3 µM (inactive) in the assay with M14; 5.65 µM (inactive) in the assay with MCF7; 28.6 µM (inactive) in the assay on NCI-H23; 34.1 µM (inactive) with OVCAR-4; > 32 µM (inactive) in the assay on OVCAR-5; 4.07 µM (inactive) with OVCAR-8. The GI50 in the assay with RPMI-8226 is 5.36 µM (inactive); in the assay on SK-MEL-5, 2.79 µM (inactive); with SN12C, > 100 µM (inactive); with SR, 3.27 µM (inactive); in the assay with TK-10, > 48.8 µM (inactive); in the assay with UACC-62 it was 7.98 µM (inactive).
For `C=C(/C=C/C=C(\C)CCC=C(C)C)[C@@H]1CC[C@]2([C@H](CCCO)/C(=C(/C)C=O)CC[C@]2(C)O)[C@@H]1O`, the GI50 with A549 was 13.3 µM (inactive); in the assay on COLO 205 it was 11 µM (inactive); with HCT-15, 19.4 µM; in the assay with HOP-92, < 0.01 µM (active); with KM-20L2, 29.3 µM (inactive); with LOX IMVI, 14.7 µM (inactive). In addition, the GI50 is 21.7 µM (inactive) with M14; > 10 µM (inactive) with M19-MEL; 19.5 µM (inactive) in the assay on NCI-H23; 61.8 µM (inactive) in the assay on OVCAR-5; 20.6 µM (inactive) in the assay with OVCAR-8; 22.6 µM (inactive) with SK-MEL-5. Moreover, the GI50 in the assay with SN12C was 17.1 µM (inactive); in the assay with SR, 18.8 µM (inactive); in the assay on TK-10, 31.3 µM (inactive).
